# Tested on: chicken roundworm [鶏回虫(^5earidia galli)]
# Assay: Anthelmintic test: single oral dose to chickens infected with chicken roundworm; worm expulsion rate over 7 days
# Assay type: in vivo, chicken roundworm (^5earidia galli)
# Settings: for worm expulsion rate (mean): single oral dose (gelatin capsule), n = 3, 7 days, untreated control 0%
smiles,measurement,setting,value
"[C-]#[N+]C(=Cc1ccc(O)cc1)C(=Cc1ccc(OC)cc1)[N+]#[C-] [キサントシリンXモノメチルエーテル, 1(p−ヒドロキシフェニル)−2、3−ジイソシフノー4−(p−メトキシフェニル)−ブタ−1,3−ツエン]",worm expulsion rate (mean),5 mg/kg,8%
same,worm expulsion rate (mean),10 mg/kg,69.7%
same,worm expulsion rate (mean),"20 mg/kg, completely expelled",100%
same,anthelmintic effect,"doses of 10 mg/kg to 20 mg/kg, single oral dose",確実な駆虫効果が確認された
same,time after dosing within which most worms were expelled,"most of the medicated groups, single oral dose 5-20 mg/kg",≤ 2 days

# Reference: patent JPH0240324A, “キサントシリンxモノメチルエーテルを含有する駆虫剤” (Meiji Seika Kaisha Ltd, priority 1988, dated 1990)
